Experimental data published in patent US9504676B2, “Molecules inhibiting a metabolic pathway involving the Syk protein tyrosine kinase and method for identifying said molecules” (CENTRE NATIONAL DE LA RECHERCHE SCIENTIFIQUE, priority 2008, dated 2016).
Converted amounts (≈) assume the structure as drawn.

Key:
[1] = target: T1, murine Syk tyrosine kinase protein (GST:Syk 6-242) (Mus musculus, UniProt P48025); experiment: ADA method: displacement of the binding of scFv G4G11 with Syk (ELISA); conditions: small molecules at 10 μM, scFv G4G11 100 nM; read-out: In vit. inhib.: mean inhibition % of the binding of scFv G4G11 with Syk in the ADA method
T1 construct: made in house
Summary of the method: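 GST:Syk 6-242 (murine) was immobilised at 10 μg ml^−1 and pre-incubated 1 h at ambient temperature with compounds at 10 μM final in PBS. scFv G4G11 was then added at 100 nM for 1 h. Bound scFv was detected via its C-terminal c-myc tag with HRP-9E10, and % inhibition was taken from signals with versus without compound.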

RBL-2H3 cells = experiment: cells; format: cell-based, rat; conditions: Rattus norvegicus; RBL-2H3 cells; read-out: Degran. IC50: concentration inhibiting mast cell degranulation by 50%
Summary of the method: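 RBL-2H3 rat basophils sensitized 12-16 h with anti-DNP IgE (0.5 μg/ml), pretreated 90 min at 37° C with compound (DMF 0.25% vehicle), then stimulated 45 min with DNP-BSA (50 ng ml^−1) or ionomycin (1.5 μM). Degranulation read as β-hexosaminidase release.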

BMMC cells = experiment: C-13 toxicity test on BMMC cells (Annexin-V and Propidium Iodide); format: cell-based; conditions: Staurosporine, 3 hours
Procedure: FIG. 10. Toxicity test of C-13 on BMMC cells. The BMMC cells were incubated at 37° C. in the presence of 2.5 μM or 5 μM of C-13, 0.25% DMF or Staurosporine. The percentages of live BMMC cells after 3 hours and after 5 days were detected by means of double Annexin-V and Propidium Iodide labelling. The viability of BMMC cells incubated in the presence of 2.5 μM or 5 μM of C-13 or 0.25% DMF was not affected to noteworthy degree after 3 hours (78%, 74% and 79% respectively) or five days (62, 56 and 57%, respectively). On the other hand, the viability of BMMC cells treated under the same conditions with Staurosporine was reduced to a level of 16% after only 3 hours.
• 1) Chemical products and antibodies. A chemical bank of 3000 molecules (a varied subset) was acquired from ChemBridge, Inc. (San Diego, Calif.). Stocks of solutions of small molecules were prepared at a rate of 10 mM in DMSO (dimethylsulphoxide), except for C-13 (methyl 2-{5-[(3-benzyl-4-oxo-2-thioxo-1,3-thiazolidin-5-ylidene)methyl]-2-furyl}benzoate, ChemBridge ID No. 6197026) prepared in DMF (dimethylformamide). Unless specified otherwise, all the reagents were supplied by Sigma. Dinitrophenyl (DNP) hapten was acquired from Calbiochem. Sepharose GammaBind G and all the secondary antibodies were supplied by GE Health Amersham Biosciences. The anti-Syk, anti-Lyn, anti-Btk, anti-PLC-γ1, anti-PLC-γ2, anti-LAT, anti-SLP-76, anti-p38, anti-JNK, anti-Vav, anti-Akt1 and 9E10 antibodies conjugated with HRP were acquired from Santa Cruz Biotechnology. The anti-phospho-p44/42 MAP Kinase, anti-p44/42 MAP Kinase, anti-phospho-p38, anti-phospho-JNK, anti-phospho-Akt1 antibodies were acquired from Cell Signaling. The anti-phospho-LAT and anti-phospho-PLC-γ1 antibodies were supplied by Biosource and the anti-phospho-SLP-76 antibodies by BD Pharmingen. The 4G10 anti-phosphotyrosine monoclonal antibody was acquired from Upstate Biotechnology. • 2) ADA method: ELISA type high-speed molecule screening test, based on antibody displacement (WO 2005106481). The recombinant fusion protein GST:Syk 6-242^8 comprising the residues 6 to 242 of murine Syk tyrosine kinase protein illustrated in FIG. 8B (SEQ ID No. 4) was immobilised on an ELISA plate at a final concentration of 10 μg ml^−1. For the screening of the chemical molecule bank, the small molecules, diluted in PBS at a final concentration of 10 μM were added to the wells for one hour at ambient temperature, before adding the fragment scFv G4G11 at a final concentration of 100 nM for an additional hour. The binding of G4G11 with Syk was assessed by adding the 9E10 monoclonal antibody conjugated with HRP detecting the amino acid sequence EQKLISEEDLN of human c-myc protein located at the C-terminal end of the scFv fragment. To generate Syk mutants, targeted mutagenesis was used on GST:Syk 6-242 protein and the binding of G4G11 with the mutants was assessed in the presence of 5 μM of C-13. • 3) Cells, culture conditions and functional tests. Anti-DNP 2682-I mouse monoclonal antibody was used as the culture supernatant of hybridomas containing 1 μg/ml of IgE. Femoral bone marrow cells were sampled and cultured in Opti-MEM medium (Gibco) supplemented with 10% foetal calf serum and 4% X63 transfectant supernatant secreting murine IL-3. RBL-2H3 (ATCC) leukaemic rat basophil cells were maintained in a single-layer culture in RPMI 1640 medium supplemented with 10% foetal calf serum (Gibco). […]

Row | SMILES | inhibition at 10 µM [1] | IC50 (RBL-2H3 cells) | percentage of live BMMC cells (BMMC cells)
1 | CN(C)S(=O)(=O)c1ccc(C(=O)C2=C(O)C(=O)N(CCCN3CCOCC3)C2c2cccnc2)cc1 (stereo not shown) [Molecule 65, 4-{[4-hydroxy-1-[3-(4-morpholinyl)propyl]-5-oxo-2-(3-pyridinyl)-2,5-dihydro-1H-pyrrol-3-yl]carbonyl}-N,N-dimethylbenzenesulphonamide] | 37% | > 10 µg/mL | 
2 | O=C(C1=C(O)C(=O)N(CCCN2CCOCC2)C1c1ccccc1F)c1ccc2c(c1)OCO2 (stereo not shown) [Molecule 68, 4-(1,3-benzodioxol-5-ylcarbonyl)-5-(2-fluorophenyl)-3-hydroxy-1-[3-(4-morpholinyl)propyl]-1,5-dihydro-2H-pyrrol-2-one] | 30% | ~10 µg/mL (≈ 21.3 µM) | 
3 | COc1ccc(NC(=O)CSc2nc3ccccc3c(=O)n2Cc2ccco2)c(OC)c1 [Molecule 69] | 30% | ~5 µg/mL (≈ 11.1 µM) | 
4 | COc1ccc(OCC(=O)NCc2cc(-c3nn(C)c(=O)c4ccccc34)ccc2C)cc1 [Molecule 72, 2-(4-methoxyphenoxy)-N-[2-methyl-5-(3-methyl-4-oxo-3,4-dihydro-1-phthalazinyl)benzyl]acetamide] | 28% | ~10 µg/mL (≈ 22.5 µM) | 
5 | COc1ccc(C2(CNC(=O)c3ccc(NC(=O)c4ccco4)cc3)CCOCC2)cc1 [Molecule 73, N-{4-[({[4-(4-methoxyphenyl)tetrahydro-2H-pyran-4-yl]methyl}amino)carbonyl]phenyl}-2-furamide] | 28% | > 10 µg/mL | 
6 | COc1cccc(C2C(C(=O)c3ccccc3)=C(O)C(=O)N2CCCN2CCOCC2)c1OC (stereo not shown) [Molecule 74, 4-benzoyl-5-(2,3-dimethoxyphenyl)-3-hydroxy-1-(3-(4-morpholinyl)propyl]-1,5-dihydro-2H-pyrrol-2-one] | 27.5% | > 10 µg/mL | 
7 | O=C(Nc1cccc2ccccc12)OCCn1nnnc1C1(N2CCOCC2)CCCCC1 [Molecule 76, 2-{5-[1-(4-morpholinyl)cyclohexyl]-1H-tetrazol-1-yl}ethyl 1-naphthylcarbamate] | 27% | > 10 µg/mL | 
8 | COC(=O)c1ccc(NC(=O)CC2C(=O)N(c3ccccc3)C(=O)N2Cc2ccc3c(c2)OCO3)cc1 (stereo not shown) [Molecule 77, methyl 4-({[3-(1,3-benzodioxol-5-ylmethyl)-2,5-dioxo-1-phenyl-4-imidazolidinyl]acetyl}amino)benzoate] | 26% | > 10 µg/mL | 
9 | CCOC(=O)C1CCN(C(=O)c2ccc(CN(c3ccc(C)c(C)c3)S(C)(=O)=O)cc2)CC1 [Molecule 80, ethyl 1-(4-{[(3,4-dimethylphenyl) (methyl sulphonyl)amino]methyl}benzoyl)-4-piperidine carboxylate] | 24.5% | > 10 µg/mL | 
10 | COC(=O)c1ccc(NC(=O)CN(c2cccc(OC)c2)S(=O)(=O)c2ccccc2)cc1 [Molecule 81] | 20% | > 10 µg/mL | 
11 | O=C(C1=C(O)C(=O)N(CCCN2CCOCC2)C1c1ccncc1)c1ccc2c(c1)OCCO2 (stereo not shown) [Molecule 83, 4-(2,3-dihydro-1,4-benzodioxin-6-ylcarbonyl)-3-hydroxy-1-[3-(4-morpholinyl)propyl]-5-(4-pyridinyl)-1,5-dihydro-2H-pyrrol-2-one] | 19% | ~10 µg/mL (≈ 21.5 µM) | 
12 | CCN(CC)CCCN1C(=O)C(O)=C(C(=O)c2cc3cccc(OC)c3o2)C1c1ccccn1 (stereo not shown) [Molecule 86, 1-[3-(diethylamino)propyl]-3-hydroxy-4-[(7-methoxy-1-benzofuran-2-yl)carbonyl]-5-(2-pyridinyl)-1,5-dihydro-2H-pyrrol-2-one] | 17% | ~10 µg/mL (≈ 21.6 µM) | 
13 | CN[C@@H]1C[C@H]2O[C@@](C)([C@@H]1OC)n1c3ccccc3c3c4c(c5c6ccccc6n2c5c31)C(=O)NC4 [Staurosporine, reference compound] |  |  | 16%

Second part, led by results:

Row | inhibition at 10 µM [1] | IC50 (RBL-2H3 cells) | SMILES | percentage of live BMMC cells (BMMC cells)
14 | 38.5% | ~5 µg/mL (≈ 10.6 µM) | CSc1nnc2c(n1)OC(c1cccc(OCc3ccccc3)c1)N(C(C)=O)c1ccccc1-2 (stereo not shown) [Molecule 63, 7-acetyl-6-[3-(benzyloxy)phenyl]-3-(methylthio)-6,7-dihydro [1,2,4] triazino[5,6-d][3,1] benzoxazepine] | 
15 | 37.5% | > 10 µg/mL | COc1cccc2cc(C(=O)C3=C(O)C(=O)N(CCCn4ccnc4)C3c3ccccn3)oc12 (stereo not shown) [Molecule 64] | 
16 | 32% | > 10 µg/mL | Cc1ccc(-c2nnc(Nc3cccc(O)c3)c3ccccc23)cc1S(=O)(=O)NC(C)(C)CO [Molecule 67, N-(2-hydroxy-1,1-dimethylethyl)-5-{4-[(3-hydroxyphenyl)amino]-1-phthalazinyl}-2-methylbenzenesulphonamide] | 
17 | 30% | > 10 µg/mL | COc1cccc(C(=O)N(Cc2cc3ccc(C)cc3nc2C)c2ccccc2OC)c1 [Molecule 70] | 
18 | 29% | > 10 µg/mL | COc1cccc(C2C(C(=O)c3ccc(Cl)cc3)=C(O)C(=O)N2CCN2CCOCC2)c1 (stereo not shown) [Molecule 71, 4-(4-chlorobenzoyl)-3-hydroxy-5-(3-methoxyphenyl)-1-[2-(4-morpholinyl)ethyl]-1,5-dihydro-2H-pyrrol-2-one] | 
19 | 25% | > 10 µg/mL | O=C(Nc1ccccc1C(=O)N1CCCC1)c1ccc(CN2CCc3ccccc3C2)cc1 [Molecule 78, 4-(3,4-dihydro-2(1H)-isoquinolinyl-methyl)-N-[2-(1-pyrrolidinylcarbonyl)phenyl]benzamide] | 
20 | 25% | > 10 µg/mL | CCN1C2=C(C(=O)CCC2)C(c2ccc(OCc3ccc(C)cc3)c(Cl)c2)C2=C1CCCC2=O [Molecule 79] | 
21 | 18% | ~10 µg/mL (≈ 18.5 µM) | COc1cccc2cc(C(=O)C3=C(O)C(=O)N(CCN4CCOCC4)C3c3cccc(Br)c3)oc12 (stereo not shown) [Molecule 85, 5-(3-bromophenyl)-3-hydroxy-4-[(7-methoxy-1-benzofuran-2-yl)carbonyl]-1-[2-(4-morpholinyl)ethyl]-1,5-dihydro-2H-pyrrol-2-one] | 
22 | 11% | ~5 µg/mL (≈ 10.3 µM) | Cc1ccc(-c2nnc(N3CCN(C(=O)CSc4nc(C)cc(C)n4)CC3)c3ccccc23)cc1 [Molecule 87, 1-(4-{[(4,6-dimethyl-2-pyrimidinyl)thio]acetyl}-1-piperazinyl)-4-(4-methylphenyl) phthalazine] | 
